Measurements: US3954972A, “Antibiotic A-26771 factor” (Eli Lilly and Company, priority 1975, dated 1976)
“Also recorded” adds a separate entry of the source. Where two headings read alike, the source gives them in different places.

Assays:
Fusarium moniliforme = test: microbe, parasite or virus in culture; format: cell-based; settings: Fusarium verticillioides
Type III poliovirus = test: microbe, parasite or virus in culture; format: cell-based
Bacillus subtilis = test: microbe, parasite or virus in culture; format: cell-based
[1] = system: Coxsackie virus A-21 (COE strain); test: microbe, parasite or virus in culture; format: cell-based; settings: read-out: diameter of zone of virus inhibition
poliovirus III = format: in vivo, mice; settings: for Z (zone diameter of viral inhibition by serum): BSC1 cells
[2] = system: Trichophyton mentagrophytes; test: microbe, parasite or virus in culture; format: cell-based
electrometric titration = format: physicochemical; settings: 66 percent dimethylformamide
Staphylococcus aureus [3] = test: microbe, parasite or virus in culture; format: cell-based
[4] = system: several viruses, including polioviruses and Coxsackie virus; format: cell-based
[5] = system: Saccharomyces pastorianum; test: microbe, parasite or virus in culture; format: cell-based
Mycobacterium avium = test: disc-plate assay, Mycobacterium avium; format: cell-based
Serratia marcescens = test: microbe, parasite or virus in culture; format: cell-based
Klebsiella pneumoniae = test: microbe, parasite or virus in culture; format: cell-based
Escherichia coli = test: microbe, parasite or virus in culture; format: cell-based
Candida albicans = test: microbe, parasite or virus in culture; format: cell-based
Neurospora crassa = test: microbe, parasite or virus in culture; format: cell-based
Sarcina lutea = test: microbe, parasite or virus in culture; format: cell-based; settings: Micrococcus luteus
White Swiss mice = test: survival of mice after intraperitoneal injection; settings: groups of four mice
Mycoplasma hyosynoviae = test: microbe, parasite or virus in culture
Verticillium albo-atrum = test: in vitro susceptibility (MIC), Verticillium albo-atrum; format: cell-based
Mycoplasma synoviae = test: microbe, parasite or virus in culture; settings: Mycoplasmopsis synoviae
Botrytis cinerea = test: in vitro susceptibility (MIC), Botrytis cinerea; format: cell-based
Streptococcus faecalis = test: microbe, parasite or virus in culture; settings: Enterococcus faecalis
Mycoplasma gallisepticum = test: microbe, parasite or virus in culture; settings: Mycoplasmoides gallisepticum
Ceratocystis ulmi = test: in vitro susceptibility (MIC), Ceratocystis ulmi; format: cell-based
[6] = system: Trichophyton mentagrophytes; test: microbe, parasite or virus in culture
Vibrio coli = test: microbe, parasite or virus in culture; settings: Campylobacter coli
Mycoplasma granularum = test: microbe, parasite or virus in culture; settings: Acholeplasma granularum
Xanthomonas phaseoli = test: microbe, parasite or virus in culture
Mycoplasma hyopneumoniae = test: microbe, parasite or virus in culture; settings: Mesomycoplasma hyopneumoniae
Pasteurella multocida = test: microbe, parasite or virus in culture
Erwinia amylovora = test: microbe, parasite or virus in culture
Candida tropicalis = test: microbe, parasite or virus in culture
Staphylococcus aureus [7] = test: microbe, parasite or virus in culture
[8] = Enterovirus C, read-out: diameter of zone of virus inhibition
[9] = 29 mg./kg. intraperitoneal, One Hour
[10] = 29 mg./kg. intraperitoneal, Six Hours
[11] = 58 mg./kg. intraperitoneal, One Hour
[12] = 58 mg./kg. intraperitoneal, Six Hours
[13] = 117 mg./kg. intraperitoneal, One Hour
[14] = 234 mg./kg. intraperitoneal, One Hour
[15] = Enterovirus C; read-out: diameter of zone of virus inhibition

CN1C(=O)C2(Cc3ccccc3)SSC1(CO)C(=O)N2C (single isomer, unassigned) [Factor A, 3-benzyl-6-(hydroxymethyl)-1,4-dimethyl-3,6-epidithio-2,5-piperazinedione] gave a zone of inhibition at 100 µg/mL (Fusarium moniliforme) of 10 mm, a zone of inhibition at 1000 µg/mL (Fusarium moniliforme) of 14 mm and a zone of inhibition at 1.5 µg/mL (Type III poliovirus; [8]) of 16 mm. For the same molecule, the zone of inhibition at 3.2 µg/mL (Type III poliovirus; [8]) was 24 mm, the zone of inhibition at 7.5 µg/mL (Type III poliovirus; [8]) was 30 mm and the zone of inhibition at 15 µg/mL (Type III poliovirus; [8]) was 34 mm. For the same molecule, the zone of inhibition at 31.1 µg/mL (Type III poliovirus; [8]) was 38 mm, the zone of inhibition at 62.2 µg/mL (Type III poliovirus; [8]) was 40 mm and the zone of inhibition at 125 µg/mL (Type III poliovirus; [8]) was 44 mm. The zone of inhibition at 250 µg/mL (Type III poliovirus; [8]) was 46 mm, the zone of inhibition at 500 µg/mL (Type III poliovirus; [8]) was 50 mm and the zone of inhibition at 1000 µg/mL (Type III poliovirus; [8]) was 50 mm. For the same molecule, the zone of inhibition at 100 µg/mL (Bacillus subtilis) was 11 mm, the zone of inhibition at 1000 µg/mL (Bacillus subtilis) was 22 mm and the zone of inhibition at 1.5 µg/mL [1] was 15 mm. For the same molecule, the zone of inhibition at 3.2 µg/mL [1] was 20 mm, the zone of inhibition at 7.5 µg/mL [1] was 26 mm and the zone of inhibition at 15 µg/mL [1] was 32 mm. It also gave a zone of inhibition at 31.1 µg/mL [1] of 35 mm, a zone of inhibition at 62.2 µg/mL [1] of 38 mm and a zone of inhibition at 125 µg/mL [1] of 40 mm. It also gave a zone of inhibition at 250 µg/mL [1] of 45 mm, a zone of inhibition at 500 µg/mL [1] of 50 mm and a zone of inhibition at 1000 µg/mL [1] of 52 mm. The “Z (zone diameter of viral inhibition by serum)” value (poliovirus III; [9]) was 20 millimeters, the “Z (zone diameter of viral inhibition by serum)” value (poliovirus III; [10]) was 18 millimeters and the “Z (zone diameter of viral inhibition by serum)” value (poliovirus III; [11]) was 24 millimeters. The “Z (zone diameter of viral inhibition by serum)” value (poliovirus III; [12]) was 23 millimeters, the “Z (zone diameter of viral inhibition by serum)” value (poliovirus III; [13]) was 29 millimeters and the “Z (zone diameter of viral inhibition by serum)” value (poliovirus III; [14]) was 30 millimeters. The “antiviral activity in vivo” value (poliovirus III; biological activity of serum levels in mice) was “demonstrated in vivo from the biological activity of serum levels in mice”, the zone of inhibition at 100 µg/mL [2] was 19 mm and the zone of inhibition at 1000 µg/mL [2] was 27 mm. The titratable groups (electrometric titration) was “did not indicate the presence of titratable groups”, the zone of inhibition at 100 µg/mL (Staphylococcus aureus [3]) was 12 mm and the zone of inhibition at 1000 µg/mL (Staphylococcus aureus [3]) was 23 mm. The antiviral activity ([4]; tissue culture) was “demonstrated against several viruses, including polioviruses and Coxsackie virus; also recorded: antiviral agents; also recorded: antiviral activity”, the zone of inhibition at 100 µg/mL [5] was 19 mm and the zone of inhibition at 1000 µg/mL [5] was 32 mm. The zone of inhibition at 1000 µg/mL (Mycobacterium avium) was 14 mm, the zone of inhibition at 1000 µg/mL (Serratia marcescens) was 14 mm and the zone of inhibition at 1000 µg/mL (Klebsiella pneumoniae) was 12 mm. It also gave a zone of inhibition at 1000 µg/mL (Escherichia coli) of 12 mm, a zone of inhibition at 1000 µg/mL (Candida albicans) of 28 mm and a zone of inhibition at 100 µg/mL (Neurospora crassa) of 13 mm. It also gave a zone of inhibition at 1000 µg/mL (Neurospora crassa) of 27 mm, a zone of inhibition at 100 µg/mL (Sarcina lutea) of 18 mm and a zone of inhibition at 1000 µg/mL (Sarcina lutea) of 28 mm. The Survivors (White Swiss mice; [9]) was 4, the Survivors (White Swiss mice; [10]) was 4 and the Survivors (White Swiss mice; [11]) was 4. For the same molecule, the Survivors (White Swiss mice; [12]) was 4, the Survivors (White Swiss mice; [13]) was 4 and the Survivors (White Swiss mice; 117 mg./kg. intraperitoneal, Six Hours) was 0. For the same molecule, the Survivors (White Swiss mice; [14]) was 4 and the Survivors (White Swiss mice; 234 mg./kg. intraperitoneal, Six Hours) was 0.

Molecule CC1CCCCCCCCCC(OC(=O)CCC(=O)O)C(=O)/C=C/C(=O)O1 (centres unmarked) [Factor B, mono(16-methyl-2,5-dioxooxacyclohexadec-3-en-6-yl) succinate] has a zone of inhibition at 1000 µg/mL (Bacillus subtilis) of 14 mm, an MIC (Mycoplasma hyosynoviae) of 12.5 µg/mL and a zone of inhibition at 1000 µg/mL [2] of 14 mm. For the same molecule, the MIC (Verticillium albo-atrum) was 50 µg/mL, the MIC (Mycoplasma synoviae) was 12.5 µg/mL and the MIC (Botrytis cinerea) was 12.5 µg/mL. The MIC (Streptococcus faecalis) was 25 µg/mL, the zone of inhibition at 100 µg/mL (Staphylococcus aureus [3]) was 15 mm and the zone of inhibition at 1000 µg/mL (Staphylococcus aureus [3]) was 24 mm. For the same molecule, the zone of inhibition at 100 µg/mL [5] was 12 mm, the zone of inhibition at 1000 µg/mL [5] was 25 mm and the MIC (Mycoplasma gallisepticum) was 3.12 µg/mL. The MIC (Ceratocystis ulmi) was 6.25 µg/mL, the MIC [6] was 6.25 µg/mL and the MIC (Vibrio coli) was 50 µg/mL. It also gave an MIC (Mycoplasma granularum) of 50 µg/mL, an MIC (Xanthomonas phaseoli) of 50 µg/mL and a zone of inhibition at 1000 µg/mL (Neurospora crassa) of 13 mm. It also gave a zone of inhibition at 100 µg/mL (Sarcina lutea) of 12 mm, a zone of inhibition at 1000 µg/mL (Sarcina lutea) of 22 mm and an MIC (Mycoplasma hyopneumoniae) of 12.5 µg/mL. For the same molecule, the MIC (Pasteurella multocida) was 6.25 µg/mL, the MIC (Erwinia amylovora) was less than 0.78 µg/mL and the MIC (Candida tropicalis) was 100 µg/mL. For the same molecule, the MIC (Staphylococcus aureus [7]) was less than 1.56 µg/mL.

For CN1C(=O)C2(Cc3ccccc3)SSSSC1(CO)C(=O)N2C (centres unmarked) [Factor C, 3-benzyl-6-(hydroxymethyl)-1,4-dimethyl-3,6-epitetrathio-2,5-piperazinedione], the zone of inhibition at 100 µg/mL (Type III poliovirus; [15]) was 40 mm, the zone of inhibition at 1000 µg/mL (Type III poliovirus; [15]) was 50 mm and the zone of inhibition at 100 µg/mL [1] was 40 mm. The zone of inhibition at 1000 µg/mL [1] was 50 mm and the antiviral activity [4] was “demonstrated against several viruses, including polioviruses and Coxsackie virus; also recorded: antiviral agents; also recorded: antiviral activity”.
